Measured values: PMC3057289 (2011)

Target: T1, TRPC5 (Homo sapiens, UniProt Q9UL62)
T1 sequence (Q9UL62 1-973): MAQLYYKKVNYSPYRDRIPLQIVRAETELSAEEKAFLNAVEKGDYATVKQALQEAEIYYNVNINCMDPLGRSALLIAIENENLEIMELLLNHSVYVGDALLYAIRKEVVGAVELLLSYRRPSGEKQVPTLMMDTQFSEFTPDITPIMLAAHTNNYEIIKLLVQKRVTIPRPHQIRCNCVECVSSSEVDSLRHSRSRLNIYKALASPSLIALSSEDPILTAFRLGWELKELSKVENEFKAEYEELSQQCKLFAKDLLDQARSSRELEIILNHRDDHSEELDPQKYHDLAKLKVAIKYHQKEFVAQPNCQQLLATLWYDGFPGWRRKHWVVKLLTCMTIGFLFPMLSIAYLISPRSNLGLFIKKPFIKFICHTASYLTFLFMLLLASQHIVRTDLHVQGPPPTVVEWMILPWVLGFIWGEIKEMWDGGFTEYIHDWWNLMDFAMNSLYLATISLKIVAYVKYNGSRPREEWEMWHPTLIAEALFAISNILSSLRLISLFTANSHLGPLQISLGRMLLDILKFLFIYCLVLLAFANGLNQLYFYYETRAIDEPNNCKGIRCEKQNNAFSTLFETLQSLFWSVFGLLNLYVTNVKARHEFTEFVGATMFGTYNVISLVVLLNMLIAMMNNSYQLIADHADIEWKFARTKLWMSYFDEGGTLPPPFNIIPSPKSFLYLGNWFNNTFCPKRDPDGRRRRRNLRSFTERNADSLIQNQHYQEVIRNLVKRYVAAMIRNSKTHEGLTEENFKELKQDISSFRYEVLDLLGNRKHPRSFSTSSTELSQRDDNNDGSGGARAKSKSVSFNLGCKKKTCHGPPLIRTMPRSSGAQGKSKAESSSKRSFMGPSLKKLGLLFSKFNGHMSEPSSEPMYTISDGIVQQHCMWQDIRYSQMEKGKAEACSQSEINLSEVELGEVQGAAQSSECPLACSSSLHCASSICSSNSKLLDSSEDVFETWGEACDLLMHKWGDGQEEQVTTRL
Assay type: cell-based

**Q.** How did the IC50 turn out when `CC(=O)[C@H]1CC[C@H]2[C@@H]3CCC4=CC(=O)CC[C@]4(C)[C@H]3CC[C@]12C` [prog, progesterone] was run?
**A.** 5 µM
